Results reported in patent publication US12264163B2, “Compounds and methods for treating fibrotic pathologies” (Mayo Foundation for Medical Education and Research, priority 2019, dated 2025).

Experiments:
Format in all cases: cell-based, human
YAP/TAZ [1] = assay: YAP/TAZ nuclear localization in IMR-90 and other fibroblasts / mesenchymal cells (immunofluorescence); conditions: for YAP/TAZ nuclear localization: fibroblasts / mesenchymal cells on plastic, 2 hours
cAMP = cAMP assay (cAMP-Glo) in fibroblasts; conditions: IPF patient-derived fibroblasts, 20 minutes, 10 μM
Experimental: FIG. 9 contains a bar graph showing cAMP measured in IPF patient-derived fibroblasts treated for 20 minutes with DHX (10 μM)+/−SCH 39166 (3 μM). N=3 (**p<0.01 vs. 0.1% DMSO vehicle control).
N=3, IMR-90 lung fibroblasts.
cAMPAssay: IPF patient derived fibroblasts were plated in EMEM containing 10% FBS overnight. […] 20 minutes prior to cell lysis media was removed and cells were treated with “induction buffer” containing nonselective phosphodiesterase inhibitors and the indicated concentration of compound(s). Luminescence was measured on a Flexstation 3 (Molecular Devices) plate reader.

YAP/TAZ [2] = assay: YAP/TAZ nuclear localization in IMR-90 and other fibroblasts / mesenchymal cells (immunofluorescence); conditions: cells with lower DRD1 and DRD5 expression than IMR-90

With `Oc1cc2c(cc1O)[C@H]1c3ccccc3CN[C@@H]1CC2` (racemic) [Dihydrexidine] the “YAP/TAZ nuclear localization stimulated by GPCR ligands” value (YAP/TAZ [1]; confluent fibroblasts, endothelin-1, lysophosphatidic acid, serotonin, DHX 10 μM) was “blocked nuclear localization of YAP/TAZ”, the YAP/TAZ nuclear localization (YAP/TAZ [1]) was “reduced nuclear localization of YAP/TAZ” and the YAP/TAZ nuclear localization (YAP/TAZ [1]; listed as DHX) was “effective at inhibiting YAP/TAZ nuclear localization”. The “potency of inhibition of YAP/TAZ nuclear localization, normal vs IPF lung fibroblasts” value (YAP/TAZ [1]; normal lung fibroblasts vs those from a patient with IPF) was “equally potent”, the cAMP (cAMP) was “elevated cAMP” and the “YAP/TAZ nuclear localization in mesenchymal cells derived from uterine fibroids” value (YAP/TAZ [2]) was “marginal inhibition of YAP/TAZ nuclear localization”.
